Reference: PubChem BioAssay (NCI)
“And” between values parts separate entries of the source, which are not always exact repeats. Equal values may be shown once.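 Protocol summary: plate cells (96-well), add compound at 5 concentrations, incubate 48 h, interpolate endpoints linearly. GI50 = concentration required for 50% inhibition of growth. Definition used: TGI = concentration required for complete inhibition of growth.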

Columns and labels:
Test in all cases: NCI tumour cell line growth inhibition, 48 h
[1] = test system: HCT-116 colon
[2] = test system: HCT-15 colon
[3] = test system: KM12 colon
[4] = test system: LOX IMVI melanoma
[5] = test system: M14 melanoma
[6] = test system: MDA-MB-435
[7] = test system: NCI-H23 lung
[8] = test system: NCI/ADR-RES ovarian
[9] = test system: U251 CNS
[10] = test system: UO-31 renal

| Structure (SMILES) | TGI [1] | TGI [2] | TGI [3] | TGI [4] | TGI [5] | TGI [6] | TGI [7] | TGI [8] | TGI [9] | TGI [10] | GI50 [1] | GI50 [2] | GI50 [3] | GI50 [4] | GI50 [5] | GI50 [6] | GI50 [7] | GI50 [8] | GI50 [9] | GI50 [10] |
| --- | --- | --- | --- | --- | --- | --- | --- | --- | --- | --- | --- | --- | --- | --- | --- | --- | --- | --- | --- | --- |
| Oc1cccnc1[Se] | > 100 µM | > 100 µM | > 100 µM | > 100 µM | 67.9 µM | > 100 µM | > 100 µM | > 100 µM | > 100 µM | > 100 µM | – | – | – | – | – | – | – | – | – | – |
| CCn1c2ccccc2c2cc(NC(=O)Nc3ccc([N+](=O)[O-])cc3C)ccc21 | 17.4 µM | 37.3 µM | 16.8 µM | > 100 µM | 64.1 µM | 23.5 µM | 30.6 µM | > 100 µM | 21.6 µM | 17.1 µM | 3.17 µM | 2.29 µM | 2.69 µM | 4.98 µM | 6.21 µM | 2.62 µM | 3.9 µM | 4.65 µM | 3.85 µM | 2.68 µM |
| O=C(CSc1nc2ccccc2nc1-c1ccccc1)Nc1ccc(F)cc1 | 28.7 µM | > 100 µM | > 100 µM | > 100 µM | > 100 µM | > 100 µM | > 100 µM | > 100 µM | > 100 µM | > 100 µM | 14.1 µM | 48.7 µM | 44.8 µM | 68 µM | > 100 µM | > 100 µM | 69.7 µM | 29.9 µM | 38.8 µM | 45.7 µM |
| NCCNc1c2c(c(NCCN)c3[nH]ccc13)C(=O)c1ccccc1C2=O | 0.401 µM | 14.8 µM | 0.957 µM | 0.242 µM | 2.76 µM | 0.692 µM | 0.475 µM | 29.6 µM | 0.842 µM | > 60 µM | < 0.0261 µM | 0.845 µM | 0.191 µM | 0.0111 µM | 1.45 µM | 0.225 µM | 0.0741 µM | 13.3 µM | – | 13.8 µM |
| O=C(O)Cc1cc(Cl)ccc1O | > 100 µM | > 100 µM | > 100 µM | > 100 µM | > 100 µM | > 100 µM | > 100 µM | > 100 µM | > 100 µM | > 100 µM | – | – | – | – | – | – | – | – | – | – |
| COc1ccc(Nc2nnc(-c3cc(O)ccc3O)s2)cc1 | > 50 µM | > 50 µM | > 50 µM | > 50 µM | > 50 µM | 19.1 µM | > 50 µM | > 50 µM | > 50 µM | > 50 µM | 21.9 µM | > 50 µM | 32.6 µM | 25.7 µM | > 50 µM | 9.22 µM | > 50 µM | > 50 µM | 16.7 µM | 47.3 µM |
| COc1ccc2[nH]cc(C3(c4c[nH]c5ccc(OC)cc45)C(=O)Nc4ccc(F)cc43)c2c1 | 3.16 µM | 20.2 µM | 6.96 µM | 3.26 µM | 6.77 µM | 4.73 µM | 8.06 µM | 31.1 µM | 8.83 µM | 11.9 µM | 1.76 µM | 4.12 µM | 2.58 µM | 1.65 µM | 2.41 µM | 1.97 µM | 2.43 µM | 5.76 µM | 2.58 µM | 1.51 µM |
| C=C(Cl)C(Br)(CCl)CCC(Br)C(C)(C)Cl (centres undefined) | 3.14 µM and 3.21 µM | 9.57 µM and 3.94 µM | 9.46 µM | 3.73 µM and 4.22 µM | 7.74 µM and 4.9 µM | 8.65 µM and 4.27 µM | 5.57 µM | 10.9 µM | 6.93 µM | 8.19 µM and 4.53 µM | – | 2.01 µM | 2.94 µM | 1.76 µM | 2.01 µM | 2.13 µM | 2.46 µM | 4.39 µM | 2.74 µM | 2.17 µM |
| COc1ccc(-c2nn(-c3ccc(NC(=O)c4ccc(Cl)c(Cl)c4)cc3)cc2-c2ccncc2)cc1Cl | > 50 µM | > 11 µM | > 50 µM | 2.17 µM | > 12.9 µM | > 50 µM | > 50 µM | > 50 µM | > 50 µM | > 50 µM | 2.5 µM | 1.09 µM | 1.59 µM | 0.951 µM | 1.67 µM | 3.97 µM | > 12.7 µM | 4.12 µM | 1.3 µM | 2.07 µM |
| CCSc1ncnc2c1ncn2C1OC(CO)C(O)C1O (centres undefined) | > 100 µM | > 100 µM | > 100 µM | 16.8 µM | > 100 µM | > 100 µM | > 100 µM | > 57.1 µM | > 100 µM | > 100 µM | 0.339 µM | 0.274 µM | 0.702 µM | 0.0945 µM | 0.589 µM | 0.482 µM | 0.434 µM | 0.432 µM | 6.39 µM | 0.405 µM |
| COc1ccc2c(c1)C(=O)c1c-2c(N2CCN(C(=O)CNCCNCCO)CC2)nc2ccccc12 | 3.07 µM | 22.4 µM | 5.79 µM | 4.72 µM | 3.33 µM | 28.5 µM | – | 33.1 µM | 16.3 µM | 4.54 µM | 1.59 µM | 7.81 µM | 2.48 µM | 2.18 µM | 1.82 µM | 8.18 µM | – | 15 µM | 4.08 µM | 1.89 µM |
| C=CCCCCOc1ccccc1-c1cnc(OCCCCC=C)n1C | 11.8 µM | 16.3 µM | 13.1 µM | 17 µM | 14.6 µM | 5.22 µM | 26.8 µM | 5.96 µM | – | 20.7 µM | 2.66 µM | 4 µM | 3.3 µM | 4.89 µM | 2.88 µM | 2.08 µM | 5.04 µM | 2.29 µM | – | 3.09 µM |
| [Cl][Hg][c]1cc[c]([Hg][Cl])o1 | 20.7 µM | 6.06 µM | 24.4 µM | 4.27 µM | 12 µM | 14.4 µM | 92.1 µM | > 100 µM | 2.46 µM | 3.96 µM | 6.4 µM | 2.05 µM | 10.6 µM | 0.707 µM | 2.53 µM | 3.4 µM | 7.91 µM | 8.25 µM | 0.737 µM | 1.98 µM |
